From the supplement of paper PMC10307832

Columns and labels:
Assay in all cases: relative viability (nuclei count vs DMSO), 5 days (fraction); higher = more cells survive
201T = conditions: first compound 0.02 µM
Procedure, shortened: (§1)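 Relative viability was taken as the ratio of nuclei in treated wells to nuclei in vehicle wells. Lung cancer cell lines in 1536-well plates received compounds by pin tool one day after seeding, either one drug alone or a fixed anchor-drug dose plus five library-drug doses (not always all listed) in √10 steps. Nuclei were counted on 4× images after 5 days of treatment, and values are medians of duplicate plates.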

LC-2-ad = test system: LC-2-ad
Procedure, shortened: as §1

NCI-H2228 = test system: NCI-H2228
Procedure, shortened: as §1

NCI-H596 = test system: NCI-H596
Procedure, shortened: as §1

A-427 = test system: A-427
Procedure, shortened: as §1

LK-2 = test system: LK-2
Procedure, shortened: as §1

NCI-H727 = test system: NCI-H727
Procedure, shortened: as §1

SW 900 = test system: SW 900
Procedure, shortened: as §1

NCI-H2347 = test system: NCI-H2347
Procedure, shortened: as §1

NCI-H23 = test system: NCI-H23
Procedure, shortened: as §1

LCLC-103H = test system: LCLC-103H
Procedure, shortened: as §1

For CC(=O)O[C@@]12CO[C@@H]1C[C@H](O)[C@@]1(C)C(=O)[C@H](O)C3=C(C)[C@@H](OC(=O)[C@H](O)[C@@H](NC(=O)OC(C)(C)C)c4ccccc4)C[C@@](O)([C@@H](OC(=O)c4ccccc4)[C@H]21)C3(C)C [Docetaxel] + Cc1nc(Nc2ncc(C(=O)Nc3c(C)cccc3Cl)s2)cc(N2CCN(CCO)CC2)n1 [Dasatinib] (partner 0.075 µM), which relative viability (201T) is on record?
The relative viability was 0.282.

What about the relative viability (LC-2-ad; first compound 0.0002 µM) of the same compound?
Its relative viability is 0.362.

And the relative viability (LC-2-ad; first compound 0.000632 µM)?
The relative viability was 0.38.

And the relative viability (LC-2-ad; first compound 0.002 µM)?
The relative viability was 0.28.

What about the relative viability (LC-2-ad; first compound 0.006325 µM) of the same compound?
Its relative viability is 0.207.

What about the relative viability (NCI-H2228; first compound 0.0002 µM) of the same compound?
Its relative viability is 0.429.

What about the relative viability (NCI-H2228; first compound 0.000632 µM) of the same compound?
Its relative viability is 0.151.

And the relative viability (NCI-H2228; first compound 0.002 µM)?
The relative viability was 0.12.

What about the relative viability (NCI-H2228; first compound 0.006325 µM) of the same compound?
Its relative viability is 0.146.

And the relative viability (NCI-H2228; first compound 0.02 µM)?
Its relative viability is 0.0836.

What about the relative viability (NCI-H596; first compound 0.0002 µM) of the same compound?
Its relative viability is 0.551.

What about the relative viability (NCI-H596; first compound 0.000632 µM) of the same compound?
The relative viability was 0.6.

What about the relative viability (NCI-H596; first compound 0.002 µM) of the same compound?
Its relative viability is 0.543.

What about the relative viability (NCI-H596; first compound 0.006325 µM) of the same compound?
Its relative viability is 0.397.

And the relative viability (NCI-H596; first compound 0.02 µM)?
The relative viability was 0.222.

And the relative viability (A-427; first compound 0.0002 µM)?
Its relative viability is 0.721.

What about the relative viability (A-427; first compound 0.000632 µM) of the same compound?
The relative viability was 0.642.

And the relative viability (A-427; first compound 0.002 µM)?
Its relative viability is 0.445.

What about the relative viability (A-427; first compound 0.006325 µM) of the same compound?
Its relative viability is 0.154.

What about the relative viability (A-427; first compound 0.02 µM) of the same compound?
The relative viability was 0.141.

And the relative viability (LK-2; first compound 0.0002 µM)?
The relative viability was 0.212.

And the relative viability (LK-2; first compound 0.000632 µM)?
Its relative viability is 0.268.

What about the relative viability (LK-2; first compound 0.002 µM) of the same compound?
Its relative viability is 0.181.

What about the relative viability (LK-2; first compound 0.006325 µM) of the same compound?
Its relative viability is 0.21.

And the relative viability (LK-2; first compound 0.02 µM)?
The relative viability was 0.113.

What about the relative viability (NCI-H727; first compound 0.0002 µM) of the same compound?
Its relative viability is 0.367.

And the relative viability (NCI-H727; first compound 0.000632 µM)?
The relative viability was 0.326.

What about the relative viability (NCI-H727; first compound 0.002 µM) of the same compound?
Its relative viability is 0.272.

What about the relative viability (NCI-H727; first compound 0.006325 µM) of the same compound?
The relative viability was 0.395.

What about the relative viability (NCI-H727; first compound 0.02 µM) of the same compound?
The relative viability was 0.276.

What about the relative viability (SW 900; first compound 0.0002 µM) of the same compound?
The relative viability was 0.612.

And the relative viability (SW 900; first compound 0.000632 µM)?
The relative viability was 0.218.

And the relative viability (SW 900; first compound 0.002 µM)?
The relative viability was 0.171.

What about the relative viability (SW 900; first compound 0.006325 µM) of the same compound?
Its relative viability is 0.221.

And the relative viability (SW 900; first compound 0.02 µM)?
The relative viability was 0.127.

And the relative viability (NCI-H2347; first compound 0.0002 µM)?
The relative viability was 0.336.

And the relative viability (NCI-H2347; first compound 0.000632 µM)?
Its relative viability is 0.326.

What about the relative viability (NCI-H2347; first compound 0.002 µM) of the same compound?
The relative viability was 0.242.

What about the relative viability (NCI-H2347; first compound 0.006325 µM) of the same compound?
Its relative viability is 0.23.

What about the relative viability (NCI-H2347; first compound 0.02 µM) of the same compound?
Its relative viability is 0.241.

And the relative viability (NCI-H23; first compound 0.0002 µM)?
Its relative viability is 0.838.

What about the relative viability (NCI-H23; first compound 0.000632 µM) of the same compound?
The relative viability was 0.777.

And the relative viability (NCI-H23; first compound 0.002 µM)?
Its relative viability is 0.483.

What about the relative viability (NCI-H23; first compound 0.006325 µM) of the same compound?
Its relative viability is 0.188.

What about the relative viability (NCI-H23; first compound 0.02 µM) of the same compound?
Its relative viability is 0.0867.

And the relative viability (LCLC-103H; first compound 0.0002 µM)?
The relative viability was 0.34.

And the relative viability (LCLC-103H; first compound 0.000632 µM)?
The relative viability was 0.456.

What about the relative viability (LCLC-103H; first compound 0.002 µM) of the same compound?
The relative viability was 0.337.

What about the relative viability (LCLC-103H; first compound 0.006325 µM) of the same compound?
Its relative viability is 0.311.

And the relative viability (LCLC-103H; first compound 0.02 µM)?
The relative viability was 0.19.
